# Reference: patent publication US10617706B2, “Compounds for cancer chemotherapeutic sensitization” (Regents of the University of Minnesota, priority 2018, dated 2020)
# Target: hTdp2 (Rec) (Homo sapiens (Human), UniProt O95551)
# Assay: SUMO hTDP2cat fluorescence-based biochemical assay
# Conditions: not given
# Description: Biochemical Potency. The enzymatic activity of TDP2 was measured with a SUMO hTDP2cat fluorescence-based biochemical assay. […] After a pre-incubation period of 10 minutes, 5 μL of substrate 5′-(6-FAM-NHS)(5′-tyrosine)GATCT(3′-BHQ-1)-3′ (1 μM, final concentration of 0.25 μM) was added, and the reaction was allowed to proceed at 25° C. for 60 minutes. The fluorescence was measured, and the data was processed as described previously for 14M_zTDP2.
# Chain of hTdp2 (Rec) (O95551 113-362): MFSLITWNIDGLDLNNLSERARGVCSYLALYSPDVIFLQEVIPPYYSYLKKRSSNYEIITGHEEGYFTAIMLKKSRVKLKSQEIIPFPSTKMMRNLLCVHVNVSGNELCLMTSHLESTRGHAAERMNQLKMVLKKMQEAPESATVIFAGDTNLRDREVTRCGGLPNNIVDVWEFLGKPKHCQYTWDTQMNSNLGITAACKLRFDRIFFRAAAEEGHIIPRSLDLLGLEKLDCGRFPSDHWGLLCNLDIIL
row,SMILES,IC50
1,N#Cc1ccc2cc3c(=O)[nH]c(=O)nc-3n(-c3ccc(Oc4ccc(NC(=O)Oc5ccccc5)cc4)cc3)c2c1 [Example 118],795 ± 40 nM
2,"N#Cc1ccc2cc3c(=O)n(-c4cccc(NC(=O)Oc5ccccc5)c4)c(=O)nc-3n(-c3ccc(O)cc3)c2c1 [Example 132, Phenyl-(3-(8-cyano-10-(4-hydroxyphenyl)-2,4-dioxo-4,10-dihydropyrimido[4,5-b]quinolin-3(2H)-yl)phenyl)carbamate]",119 ± 4 nM
3,"N#Cc1ccc2cc3c(=O)n(-c4ccc(NC(=O)Oc5ccccc5)cc4)c(=O)nc-3n(-c3ccc(O)cc3)c2c1 [Example 133, Phenyl-(4-(8-cyano-10-(4-hydroxyphenyl)-2,4-dioxo-4,10-dihydropyrimido[4,5-b]quinolin-3(2H)-yl)phenyl)carbamate]",59 ± 4 nM
4,"N#Cc1ccc2cc3c(=O)n(-c4cccc(NP(=O)(Oc5ccccc5)Oc5ccccc5)c4)c(=O)nc-3n(-c3ccc(O)cc3)c2c1 [Example 134, Diphenyl-(3-(8-cyano-10-(4-hydroxyphenyl)-2,4-dioxo-4,10-dihydropyrimido[4,5-b]quinolin-3(2H)-yl)phenyl)phosphoramidate]",277 ± 11 nM
5,"N#Cc1ccc2cc3c(=O)n(-c4ccc(NP(=O)(Oc5ccccc5)Oc5ccccc5)cc4)c(=O)nc-3n(-c3ccc(O)cc3)c2c1 [Example 135, Diphenyl-(4-(8-cyano-10-(4-hydroxyphenyl)-2,4-dioxo-4,10-dihydropyrimido[4,5-b]quinolin-3(2H)-yl)phenyl)phosphoramidate]",185 ± 9 nM
6,"N#Cc1ccc2cc3c(=O)n(-c4ccc(CNP(=O)(Oc5ccccc5)Oc5ccccc5)cc4)c(=O)nc-3n(-c3ccc(O)cc3)c2c1 [Example 136, Diphenyl-(4-(8-cyano-10-(4-hydroxyphenyl)-2,4-dioxo-4,10-dihydropyrimido[4,5-b]quinolin-3(2H)-yl)benzyl)phosphoramidate]",119 ± 3 nM

# Same assay, conditions: SUMO hTDP2cat 3.13 pM, substrate 0.25 μM, 25° C., 60 minutes; read-out: hTdp2 (Rec) IC50
row,SMILES,IC50
1,"CC1(C)OB(c2cccc(Oc3ccc(-n4c5nc(=O)[nH]c(=O)c-5cc5ccc(C#N)cc54)cc3)c2)OC1(C)C [Example 119, 2,4-Dioxo-10-(4-(3-(4,4,5,5-tetramethyl-1,3,2-dioxaborolan-2-yl)phenoxy)phenyl)-2,3,4,10-tetrahydropyrimido[4,5-b]quinoline-8-carbonitrile]",8.28 ± 0.44 nM
2,"N#Cc1ccc2cc3c(=O)[nH]c(=O)nc-3n(-c3ccc(Oc4cccc(B(O)O)c4)cc3)c2c1 [Example 120, (3-(4-(8-Cyano-2,4-dioxo-3,4-dihydropyrimido[4,5-b]quinolin-10(2H)-yl)phenoxy)phenyl) boronic acid]",5.01 ± 0.69 nM

# Now from value to molecule:
row,IC50,SMILES
1,47 ± 4 nM,"CC1(C)OB(c2cccc(COc3ccc(-n4c5nc(=O)[nH]c(=O)c-5cc5ccc(C#N)cc54)cc3)c2)OC1(C)C [Example 121, 2,4-Dioxo-10-(4-((3-(4,4,5,5-tetramethyl-1,3,2-dioxaborolan-2-yl)benzyl)oxy)phenyl)-2,3,4,10-tetrahydropyrimido[4,5-b]quinoline-8-carbonitrile]"
2,359 ± 32 nM,"CC1(C)OB(c2ccc(COc3ccc(-n4c5nc(=O)[nH]c(=O)c-5cc5ccc(C#N)cc54)cc3)cc2)OC1(C)C [Example 122, 2,4-Dioxo-10-(4-((4-(4,4,5,5-tetramethyl-1,3,2-dioxaborolan-2-yl)benzyl)oxy)phenyl)-2,3,41,10-tetrahydropyrimido[4,5-b]quinoline-8-carbonitrile]"
3,39 ± 3 nM,"N#Cc1ccc2cc3c(=O)[nH]c(=O)nc-3n(-c3ccc(OCc4cccc(B(O)O)c4)cc3)c2c1 [Example 123, (3-((4-(8-Cyano-2,4-dioxo-3,4-dihydropyrimido [4,5-b]quinolin-10(2H)-yl)phenoxy)methyl)phenyl) boronic acid]"
4,239 ± 18 nM,"N#Cc1ccc2cc3c(=O)[nH]c(=O)nc-3n(-c3ccc(OCc4ccc(B(O)O)cc4)cc3)c2c1 [Example 124, (4-((4-(8-Cyano-2,4-dioxo-3,4-dihydropyrimido [4,5-b]quinolin-10(2H)-yl)phenoxy)methyl)phenyl) boronic acid]"
5,3.85 ± 0.37 nM,"O=c1nc2n(-c3ccc(Oc4cccc(B(O)O)c4)cc3)c3cc(Cl)ccc3cc-2c(=O)[nH]1 [Example 143, (3-(4-(8-Chloro-2,4-dioxo-3,4-dihydropyrimido[4,5-b]quinolin-10(2H)yl)phenoxy)phenyl) boronic acid]"

# System: DT40 lymphoma cells
# Assay: not given
# Conditions: in cancer cells, at 50 μM of compound 5-I; sensitizing effect; cited from earlier work
row,SMILES,"maximal efficacy, cell viability"
1,N#Cc1ccc2cc3c(=O)[nH]c(=O)nc-3n(-c3cccc(-c4nnn[nH]4)c3)c2c1 [compound 5-I],around 10%
